For 13 molecules, IC50 results are on record in ChEMBL document CHEMBL1137098, “Design, synthesis, and biochemical evaluation of novel alpha V beta 3 integrin ligands” (Bioorg Med Chem Lett, 2004).

Holding throughout (assay type): protein-complex assay
One experiment addresses Integrin alpha-V/beta-3 (Homo sapiens, UniProt P05106+P06756). Briefly: In vitro inhibitory activity against alpha v beta 3 vitronectin protein interaction was measured by ELISA.
Experiment [1] concerns the target Integrin alpha-IIb/beta-3 (Homo sapiens, UniProt P05106+P08514). Briefly: In vitro inhibitory activity against alpha IIb beta IIIa fibrinogen protein interaction was measured by ELISA.
A further experiment deals with Integrin alpha-5/beta-1 (Homo sapiens, UniProt P05556+P08648). In words: In vitro inhibitory activity against alpha 5 beta 1 fibronectin protein interaction was measured by ELISA.
In another experiment the target is Integrin alpha-V/beta-5 (Homo sapiens, UniProt P06756+P18084). Briefly: In vitro inhibitory activity against alpha v beta 5 vitronectin protein interaction was measured by ELISA.

Each structure is given as a SMILES string. Bounds are passed on as bounds.

Sequence of Integrin alpha-IIb/beta-3 (P05106 27-788 limits assumed): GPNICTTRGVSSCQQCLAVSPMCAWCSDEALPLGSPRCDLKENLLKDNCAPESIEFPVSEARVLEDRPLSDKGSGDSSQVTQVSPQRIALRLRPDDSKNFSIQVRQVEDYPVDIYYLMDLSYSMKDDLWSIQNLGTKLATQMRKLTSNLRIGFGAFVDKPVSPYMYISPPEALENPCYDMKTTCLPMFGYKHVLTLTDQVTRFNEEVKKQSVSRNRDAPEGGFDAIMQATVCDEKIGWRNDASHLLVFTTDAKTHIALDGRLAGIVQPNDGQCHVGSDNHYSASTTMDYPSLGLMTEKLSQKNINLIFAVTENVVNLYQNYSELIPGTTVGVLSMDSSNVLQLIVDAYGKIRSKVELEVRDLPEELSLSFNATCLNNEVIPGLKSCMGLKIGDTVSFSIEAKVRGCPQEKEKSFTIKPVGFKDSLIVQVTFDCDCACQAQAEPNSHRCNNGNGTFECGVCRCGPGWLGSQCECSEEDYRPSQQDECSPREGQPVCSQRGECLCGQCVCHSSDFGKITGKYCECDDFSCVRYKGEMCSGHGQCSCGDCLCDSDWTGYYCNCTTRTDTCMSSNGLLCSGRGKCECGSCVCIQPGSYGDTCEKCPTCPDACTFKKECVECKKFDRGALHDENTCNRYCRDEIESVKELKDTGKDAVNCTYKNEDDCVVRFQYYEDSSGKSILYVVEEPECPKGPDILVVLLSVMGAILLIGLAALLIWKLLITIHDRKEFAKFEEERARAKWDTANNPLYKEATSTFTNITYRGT
Sequence of Integrin alpha-IIb/beta-3 (P08514 32-887 limits assumed): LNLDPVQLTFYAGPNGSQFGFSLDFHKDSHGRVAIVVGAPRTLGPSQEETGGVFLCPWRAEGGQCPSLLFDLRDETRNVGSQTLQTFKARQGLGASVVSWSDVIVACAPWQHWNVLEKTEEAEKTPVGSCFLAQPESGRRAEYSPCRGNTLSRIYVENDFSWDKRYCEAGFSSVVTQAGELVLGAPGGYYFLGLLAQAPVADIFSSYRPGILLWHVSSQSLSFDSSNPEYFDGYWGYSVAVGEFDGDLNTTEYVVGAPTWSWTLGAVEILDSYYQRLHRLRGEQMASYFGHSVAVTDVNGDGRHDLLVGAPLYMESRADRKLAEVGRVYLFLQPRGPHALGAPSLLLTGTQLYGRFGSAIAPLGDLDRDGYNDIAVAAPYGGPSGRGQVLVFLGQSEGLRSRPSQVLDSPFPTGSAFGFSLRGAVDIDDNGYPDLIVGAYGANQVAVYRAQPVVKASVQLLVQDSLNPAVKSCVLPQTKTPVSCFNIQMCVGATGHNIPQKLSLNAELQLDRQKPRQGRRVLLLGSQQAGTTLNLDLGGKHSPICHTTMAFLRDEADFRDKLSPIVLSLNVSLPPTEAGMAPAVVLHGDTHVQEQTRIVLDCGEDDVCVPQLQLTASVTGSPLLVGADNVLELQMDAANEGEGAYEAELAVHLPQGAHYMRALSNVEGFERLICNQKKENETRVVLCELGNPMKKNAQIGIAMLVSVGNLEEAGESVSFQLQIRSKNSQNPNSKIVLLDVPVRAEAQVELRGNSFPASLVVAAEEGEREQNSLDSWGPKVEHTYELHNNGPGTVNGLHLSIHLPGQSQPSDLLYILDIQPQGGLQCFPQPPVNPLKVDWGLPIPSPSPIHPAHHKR
Sequence of Integrin alpha-IIb/beta-3 (P08514 891-1039 limits assumed): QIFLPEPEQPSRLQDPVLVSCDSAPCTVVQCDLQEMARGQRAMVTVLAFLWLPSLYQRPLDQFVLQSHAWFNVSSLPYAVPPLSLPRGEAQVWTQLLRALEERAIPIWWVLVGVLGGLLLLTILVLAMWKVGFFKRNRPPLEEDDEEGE
Sequence of Integrin alpha-V/beta-3 (P05106 27-788 limits assumed): as the sequence (P05106 27-788 limits assumed) above
Sequence of Integrin alpha-V/beta-3 (P06756 31-889 limits assumed): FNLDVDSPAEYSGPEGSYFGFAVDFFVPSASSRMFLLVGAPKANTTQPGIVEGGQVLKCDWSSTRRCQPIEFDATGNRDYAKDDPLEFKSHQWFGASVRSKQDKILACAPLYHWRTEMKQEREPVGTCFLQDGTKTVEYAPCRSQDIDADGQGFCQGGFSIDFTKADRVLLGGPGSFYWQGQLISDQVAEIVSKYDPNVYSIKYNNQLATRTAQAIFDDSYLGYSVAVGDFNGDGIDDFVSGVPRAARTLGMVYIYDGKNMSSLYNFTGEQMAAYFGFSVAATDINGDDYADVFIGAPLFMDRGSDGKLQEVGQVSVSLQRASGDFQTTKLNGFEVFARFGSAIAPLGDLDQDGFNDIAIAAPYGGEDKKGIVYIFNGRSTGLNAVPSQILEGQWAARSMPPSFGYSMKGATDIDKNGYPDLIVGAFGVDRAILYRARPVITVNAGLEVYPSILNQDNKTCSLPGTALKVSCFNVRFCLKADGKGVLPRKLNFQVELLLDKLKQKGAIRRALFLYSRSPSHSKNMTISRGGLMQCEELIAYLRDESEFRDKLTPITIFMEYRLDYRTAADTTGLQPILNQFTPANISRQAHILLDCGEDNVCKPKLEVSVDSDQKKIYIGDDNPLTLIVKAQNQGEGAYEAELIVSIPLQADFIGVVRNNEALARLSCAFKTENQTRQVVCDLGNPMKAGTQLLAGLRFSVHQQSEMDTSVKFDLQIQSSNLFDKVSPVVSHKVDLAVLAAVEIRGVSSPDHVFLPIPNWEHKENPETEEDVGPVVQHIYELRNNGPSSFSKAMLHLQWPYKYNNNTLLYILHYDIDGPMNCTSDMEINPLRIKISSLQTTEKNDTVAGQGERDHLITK
Sequence of Integrin alpha-V/beta-3 (P06756 891-1048 limits assumed): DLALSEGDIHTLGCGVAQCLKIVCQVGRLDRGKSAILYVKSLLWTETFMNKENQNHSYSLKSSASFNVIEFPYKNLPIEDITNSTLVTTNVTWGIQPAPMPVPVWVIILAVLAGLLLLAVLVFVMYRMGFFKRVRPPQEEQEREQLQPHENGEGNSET
Sequence of Integrin alpha-V/beta-5 (P06756 31-889 limits assumed): as the sequence (P06756 31-889 limits assumed) above
Sequence of Integrin alpha-V/beta-5 (P06756 891-1048 limits assumed): as the sequence (P06756 891-1048 limits assumed) above
Sequence of Integrin alpha-V/beta-5 (P18084 24-799 limits assumed): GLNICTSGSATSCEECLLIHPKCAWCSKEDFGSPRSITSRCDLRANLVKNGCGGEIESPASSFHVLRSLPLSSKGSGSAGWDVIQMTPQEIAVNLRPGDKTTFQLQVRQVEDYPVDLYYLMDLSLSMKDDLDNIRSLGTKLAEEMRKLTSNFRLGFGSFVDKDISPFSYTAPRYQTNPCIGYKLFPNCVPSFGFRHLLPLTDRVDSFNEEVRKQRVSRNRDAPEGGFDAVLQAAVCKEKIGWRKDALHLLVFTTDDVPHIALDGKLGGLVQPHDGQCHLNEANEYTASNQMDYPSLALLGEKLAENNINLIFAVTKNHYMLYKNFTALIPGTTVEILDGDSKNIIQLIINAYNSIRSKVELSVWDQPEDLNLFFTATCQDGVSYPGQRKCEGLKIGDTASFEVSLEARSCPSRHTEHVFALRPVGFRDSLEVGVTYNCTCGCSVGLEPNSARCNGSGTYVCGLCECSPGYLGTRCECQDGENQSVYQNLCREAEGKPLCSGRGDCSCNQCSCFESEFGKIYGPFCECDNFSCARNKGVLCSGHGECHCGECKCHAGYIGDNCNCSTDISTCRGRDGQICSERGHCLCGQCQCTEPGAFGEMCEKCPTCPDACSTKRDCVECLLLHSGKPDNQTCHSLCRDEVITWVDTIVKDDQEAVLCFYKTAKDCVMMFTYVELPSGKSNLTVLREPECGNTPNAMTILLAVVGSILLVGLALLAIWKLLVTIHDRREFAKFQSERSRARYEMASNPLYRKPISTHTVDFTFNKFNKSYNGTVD

As for `CC1(C)C2CCC1(S(=O)(=O)NC(CNC(=O)c1cc3cc(OCCONC(=N)N)ccc3[nH]1)C(=O)O)CC2` (stereo not given), the midpoint of inhibition at Integrin alpha-V/beta-3, the IC50, lay at 0.4 nM.
Regarding `N=C(N)NOCCOc1ccc2[nH]c(C(=O)NCC(NS(=O)(=O)c3cc(Cl)cc(Cl)c3)C(=O)O)cc2c1` (stereo not given), the values for the IC50 (in experiment [1]; against Integrin alpha-5/beta-1; against Integrin alpha-V/beta-3) were 25 nM, above 1 µM and 6.1 nM, respectively.
`Cc1ccc(S(=O)(=O)NC(CNC(=O)c2cc3cc(OCCO/N=C(\N)NC(=O)OC(C)(C)C)ccc3[nH]2)C(=O)O)cc1` (stereo not given): the IC50 at Integrin alpha-V/beta-3 stood at 130 nM.
On the same count and under the same terms, the figure for `O=C(NCc1ccccc1)NOCCOc1ccc2[nH]c(C(=O)NCC(NC(=O)OCc3ccccc3)C(=O)O)cc2c1` (stereo not given) is above 20000 nM; for `NC(N)=NOCCOc1ccc2[nH]c(C(=O)NCC(N)C(=O)O)cc2c1` (stereo not given) it is above 20000 nM.
At Integrin alpha-V/beta-3, `N=C(N)NOCCOc1ccc2[nH]c(C(=O)NCC(NC(=O)OCc3ccccc3)C(=O)O)cc2c1` (stereo not given) displayed an IC50 of 7.2 nM.
On Integrin alpha-V/beta-3, `Cc1ccc(S(=O)(=O)NC(CNC(=O)c2cc3cc(OCCON=C(N)N)ccc3[nH]2)C(=O)O)cc1` (stereo not given) displayed an IC50 of 9 nM.
`N=C(N)NOCCOc1ccc2[nH]c(C(=O)NCC(NC(=O)c3ccccc3)C(=O)O)cc2c1` (stereo not given) registered an IC50 against Integrin alpha-V/beta-3 of 310 nM.
`N=C(N)NOCCOc1ccc2[nH]c(C(=O)NC(CC(=O)O)c3cc(Cl)cc(Cl)c3)cc2c1` (stereo not given) yielded an IC50 against Integrin alpha-V/beta-3 above 20 nM.
`N=C(N)NOCCOc1ccc2[nH]c(C(=O)NCC(NS(=O)(=O)c3ccccc3)C(=O)O)cc2c1` (stereo not given): the values for the IC50 (in experiment [1]; against Integrin alpha-V/beta-3; against Integrin alpha-V/beta-5) were 13 nM, 3.4 nM and 1000 nM, respectively.
At Integrin alpha-V/beta-3, `CCCCS(=O)(=O)NC(CNC(=O)c1cc2cc(OCCON=C(N)N)ccc2[nH]1)C(=O)O` (stereo not given) gave an IC50 of 10.5 nM.
At Integrin alpha-V/beta-3, `N=C(N)NOCCOc1ccc2[nH]c(C(=O)NCC(NCc3ccccc3)C(=O)O)cc2c1` (stereo not given) showed an IC50 above 20000 nM.
With `O=C(NCC(NS(=O)(=O)c1ccccc1)C(=O)O)c1cc2cc(OCCONC3=NCCN3)ccc2[nH]1` (stereo not given), the concentration for half-maximal inhibition (IC50) was 170 nM in experiment [1], above 20 µM against Integrin alpha-5/beta-1, 100 nM against Integrin alpha-V/beta-3 and above 20000 nM on Integrin alpha-V/beta-5.
